Results: patent US12065471B2, “B*44 restricted peptides for use in immunotherapy against cancers and related methods” (Immatics Biotechnologies GmbH, priority 2018, dated 2024)

These substances were tested on CD8+ T cells (assay: In vitro immunogenicity: T-cell priming with aAPCs loaded with peptide/MHC and anti-CD28, pMHC multimer readout). Conditions: Table 10a, pMHC multimer readout after T-cell priming.
Assay type: cell-based, human
Procedure: After three cycles of stimulation, the detection of peptide-reactive cells was performed by 2D multimer staining with B*44/SEQ ID NO: 469 (FIG. 3A), B*44/SEQ ID NO: 512 (FIG. 3B), B*44/SEQ ID NO: 9 (FIG. 3C), B*44/SEQ ID NO: 11 (D), B*44/SEQ ID NO: 17 (E), B*44/SEQ ID NO: 35 (F) or B*44/SEQ ID NO: 41 (FIG. 3G). Right panels (FIGS. 3A through 3G) show control staining of cells stimulated with irrelevant B*44/peptide complexes. Viable singlet cells were gated for CD8+ lymphocytes. Boolean gates helped excluding false-positive events detected with multimers specific for different peptides.
In order to obtain information regarding the immunogenicity of the TUMAPs of the present invention, the inventors performed investigations using an in vitro T-cell priming assay based on repeated stimulations of CD8+ T cells with artificial antigen presenting cells (aAPCs) loaded with peptide/MHC complexes and anti-CD28 antibody.
In order to perform in vitro stimulations by artificial antigen presenting cells loaded with peptide-MHC complex (pMHC) and anti-CD28 antibody, the inventors first isolated CD8+ T cells from fresh HLA-A*02 leukapheresis products via positive selection using CD8 microbeads (Miltenyi Biotec, Bergisch-Gladbach, Germany) of healthy donors obtained from the University clinics Mannheim, Germany, after informed consent.
PBMCs and isolated CD8+ lymphocytes were incubated in T-cell medium (TCM) until use consisting of RPMI-Glutamax (Invitrogen, Karlsruhe, Germany) supplemented with 10% heat inactivated human AB serum (PAN-Biotech, Aidenbach, Germany), 100 U/ml Penicillin/100 μg/ml Streptomycin (Cambrex, Cologne, Germany), 1 mM sodium pyruvate (CC Pro, Oberdorda, Germany), 20 μg/ml Gentamycin (Cambrex). 2.5 ng/ml IL-7 (PromoCell, Heidelberg, Germany) and 10 U/ml IL-2 (Novartis Pharma, Nümberg, Germany) were also added to the TCM at this step.
Generation of pMHC/anti-CD28 coated beads, T-cell stimulations and readout was performed in a highly defined in vitro system using four different pMHC molecules per stimulation condition and 8 different pMHC molecules per readout condition.
The purified co-stimulatory mouse IgG2a anti human CD28 Ab 9.3 (Jung et al., 1987) was chemically biotinylated using Sulfo-N-hydroxysuccinimidobiotin as recommended by the manufacturer (Perbio, Bonn, Germany). Beads used were 5.6 μm diameter streptavidin coated polystyrene particles (Bangs Laboratories, Illinois, USA).
800.000 beads/200 μl were coated in 96-well plates in the presence of 4×12.5 ng different biotin-pMHC, washed and 600 ng biotin anti-CD28 were added subsequently in a volume of 200 μl. Stimulations were initiated in 96-well plates by co-incubating 1×10^6 CD8+ T cells with 2×10^5 washed coated beads in 200 μl TCM supplemented with 5 ng/ml IL-12 (PromoCell) for 3 days at 37° C. Half of the medium was then exchanged by fresh TCM supplemented with 80 U/ml IL-2 and incubating was continued for 4 days at 37° C. This stimulation cycle was performed for a total of three times. For the pMHC multimer readout using 8 different pMHC molecules per condition, a two-dimensional combinatorial coding approach was used as previously described (Andersen et al., 2012) with minor modifications encompassing coupling to 5 different fluorochromes. Finally, multimeric analyses were performed by staining the cells with Live/dead near IR dye (Invitrogen, Karlsruhe, Germany), CD8-FITC antibody clone SK1 (BD, Heidelberg, Germany) and fluorescent pMHC multimers. For analysis, a BD LSRII SORP cytometer equipped with appropriate lasers and filters was used. Peptide specific cells were calculated as percentage of total CD8+ cells. Evaluation of multimeric analysis was done using the FlowJo software (Tree Star, Oregon, USA). In vitro priming of specific multimer+CD8+ lymphocytes was detected by comparing to negative control stimulations.

Substance | Wells positive [%]
490 (TENRYCVQL; listed as Homo sapiens) [compound 490] | ++ (20%-49% = ++)
476 (MEHPGKLLF; listed as Homo sapiens) [compound 476] | + (<20% = +)
485 (NEHPSNNW; listed as Homo sapiens) [compound 485] | + (<20% = +)
467 (FEYDFLLQRI; listed as Homo sapiens) [compound 467] | + (<20% = +)
463 (QEMQHFLGL; listed as Homo sapiens) [compound 463] | + (<20% = +)
510 (SEDLAVHLY; listed as Homo sapiens) [compound 510] | ++++ (>=70% = ++++)
511 (AEAVLKTLQEL; listed as Homo sapiens) [compound 511] | + (<20% = +)
509 (AESEDLAVHLY; listed as Homo sapiens) [compound 509] | + (<20% = +)
513 (AEKDGKLTDY; listed as Homo sapiens) [compound 513] | + (<20% = +)
459 (KEVDPAGHSY; listed as Homo sapiens) [compound 459] | ++ (20%-49% = ++)
512 (AEPLVGQRW; listed as Homo sapiens) [compound 512] | ++++ (>=70% = ++++)
504 (KESQLPTVM; listed as Homo sapiens) [compound 504] | ++ (20%-49% = ++)
515 (AEGGKVPIKW; listed as Homo sapiens) [compound 515] | ++ (20%-49% = ++)
497 (GEGAYGKVF; listed as Homo sapiens) [compound 497] | +++ (50%-69% = +++)
470 (EDAQGHIW; listed as Homo sapiens) [compound 470] | ++ (20%-49% = ++)
477 (VYEKNGYIYF; listed as Homo sapiens) [compound 477] | ++++ (>=70% = ++++)
496 (AEIGEGAYGKVF; listed as Homo sapiens) [compound 496] | ++ (20%-49% = ++)
495 (RENQVLGSGW; listed as Homo sapiens) [compound 495] | +++ (50%-69% = +++)

Substance | Wells positive [%]
488 (SENPETITY; listed as Homo sapiens) [compound 488] | ++ (20%-49% = ++)
461 (MEVDPIGHVYIF; listed as Homo sapiens) [compound 461] | + (<20% = +)
479 (QENSYQSRL; listed as Homo sapiens) [compound 479] | + (<20% = +)
487 (LEMPHYSTF; listed as Homo sapiens) [compound 487] | +++ (50%-69% = +++)
491 (YEVDTVLRY; listed as Homo sapiens) [compound 491] | + (<20% = +)
492 (AEHNFVAKA; listed as Homo sapiens) [compound 492] | + (<20% = +)
494 (KEITGFLLI; listed as Homo sapiens) [compound 494] | ++ (20%-49% = ++)
516 (DEYLIPQQGF; listed as Homo sapiens) [compound 516] | + (<20% = +)
500 (QEVLLQTFL; listed as Homo sapiens) [compound 500] | + (<20% = +)
469 (SEAFPSRAL; listed as Homo sapiens) [compound 469] | +++ (50%-69% = +++)
518 (FELPTGAGL; listed as Homo sapiens) [compound 518] | ++ (20%-49% = ++)
468 (QEQDVDLVQKY; listed as Homo sapiens) [compound 468] | + (<20% = +)
506 (QESDLRLFL; listed as Homo sapiens) [compound 506] | + (<20% = +)
489 (SEYADTHYF; listed as Homo sapiens) [compound 489] | +++ (50%-69% = +++)
460 (SEFMQVIF; listed as Homo sapiens) [compound 460] | + (<20% = +)
508 (AESEDLAVHL; listed as Homo sapiens) [compound 508] | + (<20% = +)
474 (AEEEIMKKI; listed as Homo sapiens) [compound 474] | + (<20% = +)
501 (KEGDLGGKQW; listed as Homo sapiens) [compound 501] | + (<20% = +)

Same assay, conditions: Table 10b, pMHC multimer readout after T-cell priming

Substance | Wells positive [%]
45 (EEINELNRMI; listed as Homo sapiens) [compound 45] | +++ (50%-69% = +++)
40 (REVDPDDSYVF; listed as Homo sapiens) [compound 40] | + (<20% = +)
53 (KEDNPSGHTY; listed as Homo sapiens) [compound 53] | ++ (20%-49% = ++)
35 (RELVHMINW; listed as Homo sapiens) [compound 35] | ++ (20%-49% = ++)
31 (MESAKETRY; listed as Homo sapiens) [compound 31] | + (<20% = +)
17 (SEIYQPRGF; listed as Homo sapiens) [compound 17] | ++++ (>=70% = ++++)
59 (AEIEADRSYQ; listed as Homo sapiens) [compound 59] | + (<20% = +)

Each substance was assayed against HLA-B*44:05 (Homo sapiens, UniProt P01889, A223V/A65T/A93T/A95T/D201E/D98Y/E176V/E187L/E204Q/E69K/G107R/H137Y/K202T/L105A/L119I/N104T/N87E/Q56L/Q94N/R106L/R155S/R180D/S101N/S121R/S35A/S48T/T118I/V36M/W191S/Y91S) (assay: MHC binding assay (UV-ligand exchange, β2m ELISA, peptide exchange yield)). Conditions: binding to HLA-B*44:05.
Method in brief: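 Peptide–HLA complexes formed by UV-ligand exchange of a UV-cleavable peptide for the test peptide. Exchange yield measured by β2m ELISA: complexes diluted 100-fold and captured on streptavidin, detected with HRP anti-β2m and TMB, read at 450 nm. Quantified against refolded HLA-A*02:01/MLA-001 monomer standards, 15-500 ng/ml.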

Substance | Peptide exchange (MHC class I binding score, peptide exchange yield)
45 (EEINELNRMI; listed as Homo sapiens) [compound 45] | +++ (>50 = +++)
40 (REVDPDDSYVF; listed as Homo sapiens) [compound 40] | +++ (>50 = +++)
53 (KEDNPSGHTY; listed as Homo sapiens) [compound 53] | +++ (>50 = +++)
35 (RELVHMINW; listed as Homo sapiens) [compound 35] | ++++ (>75% = ++++)
31 (MESAKETRY; listed as Homo sapiens) [compound 31] | +++ (>50 = +++)
17 (SEIYQPRGF; listed as Homo sapiens) [compound 17] | +++ (>50 = +++)
59 (AEIEADRSYQ; listed as Homo sapiens) [compound 59] | ++ (>20% = ++)
356 (TEAVLNRY; listed as Homo sapiens) [compound 356] | ++ (>20% = ++)
428 (AEEKAAVTSL; listed as Homo sapiens) [compound 428] | +++ (>50 = +++)
328 (HENGVLTKF; listed as Homo sapiens) [compound 328] | ++ (>20% = ++)
414 (AEGYLDLDGI; listed as Homo sapiens) [compound 414] | ++ (>20% = ++)
96 (MDELEEGESY; listed as Homo sapiens) [compound 96] | + (>10% = +)
310 (FELECPVKY; listed as Homo sapiens) [compound 310] | +++ (>50 = +++)
226 (AEDNMVTSY; listed as Homo sapiens) [compound 226] | +++ (>50 = +++)
387 (GEVQENYKL; listed as Homo sapiens) [compound 387] | +++ (>50 = +++)
